The record followed here is patent US20110044938A1 (NYCOMED GMBH, priority 2006, published 2011).

Experiment [1] deals with subclones of RKO colon adenocarcinoma cells (RKOp27 or RKOp21) arrested by Ponasterone A. Nature of the experiment: Alamar Blue cell viability assay, cell cycle specific mode of action: cells arrested by ectopic p27Kip1 induced by Ponasterone A versus proliferating cells. Format: cell-based. To be noted: Homo sapiens, RKO p27 induced (arrested) cells, 10 μM Ponasterone A, 72 hours, value = class bound given in Table A, read-out: −logIC50 RKO p27 induced (arrested) (converted). The gist of the method:
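RKOp27 or RKOp21 cells, 15000/well in DMEM/10% FCS, either arrested by p27Kip1 induced with 10 μM Ponasterone A or proliferating without inducer; compound added after 24 h, 72 h at 37° C. Alamar Blue fluorescence (544/590 nm), viability as % of untreated cells; −log IC50 reported.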

Experiment [2] concerns RKO (RKOp27) human colon adenocarcinoma cells. Nature of the experiment: Alamar Blue cell viability assay, anti-proliferative/cytotoxic activity on proliferating RKO subclones. To be noted: RKOp27, 72 h, RKO p27 uninduced (proliferating) cells, value = class bound given in Table A, read-out: −logIC50 RKO p27 uninduced (proliferating) (converted). It counts as cell-based. The method, boiled down:
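RKOp27 subclones (5000 cells/well) were exposed 24 h after seeding to semi-log compound dilutions in DMEM with 10% FCS, in quadruplicate, for 72 h at 37 °C. Viability was read by Alamar Blue fluorescence (544/590 nm) relative to untreated cells (1% DMSO medium). IC50 came from concentration-effect curves and is reported as −log IC50 [mol/l].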
In general terms: Resazurin is reduced to fluorescent resorufin, in cell work by metabolically active cells.

For the compound `COc1cccc(C(C)CC(=O)Nc2sc3c(c2C#N)CCC(OC(=O)NC2CCOCC2)C3)c1` (stereo not drawn) [Example 271, (Tetrahydro-pyran-4-yl)-carbamic acid 3-cyano-2-[3-(3-methoxy-phenyl)-butanoylamino]-4,5,6,7-tetrahydro-benzo[b] thiophen-6-yl ester], the IC50 in experiment [1] is ≥ 100000 nM; in experiment [2] it was 501 to 2000 nM.

As for `COc1cccc(C(C)CC(=O)Nc2sc3c(c2C#N)CCC(OC(=O)NCc2cncn2C)C3)c1` (stereo not drawn) [Example 272, (3-Methyl-3H-imidazol-4-ylmethyl)-carbamic acid 3-cyano-2-[3-(3-methoxy-phenyl)-butanoylamino]-4,5,6,7-tetrahydro-benzo[b]thiophen-6-yl ester], the IC50 in experiment [1] is ≥ 100000 nM; in experiment [2], 501 to 2000 nM.

As for `COc1cccc(C(C)CC(=O)Nc2sc3c(c2C#N)CCC(OC(=O)NCc2cc(C)nn2C)C3)c1` (stereo not drawn) [Example 273, (2,5-Dimethyl-2H-pyrazol-3-ylmethyl)-carbamic acid 3-cyano-2-[3-(3-methoxy-phenyl)-butanoylamino]-4,5,6,7-tetrahydro-benzo[b] thiophen-6-yl ester], the figures for the IC50 in experiment [1] and in experiment [2] were ≥ 100000 nM and ≤ 501 nM, respectively.

As for `COc1cccc(C(C)CC(=O)Nc2sc3c(c2C#N)CCC(OC(=O)NCc2cnn(C)c2)C3)c1` (stereo not drawn) [Example 274, (1-Methyl-1H-pyrazol-4-ylmethyl)-carbamic acid 3-cyano-2-[3-(3-methoxy-phenyl)-butanoylamino]-4,5,6,7-tetrahydro-benzo[b] thiophen-6-yl ester], the IC50 was ≥ 100000 nM in experiment [1] and 501 to 2000 nM in experiment [2].

For `COc1cccc(C(C)CC(=O)Nc2sc3c(c2C#N)CCC(OC(=O)NCc2cn(C)nc2C)C3)c1` (stereo not drawn) [Example 276, (1,3-Dimethyl-1H-pyrazol-4-ylmethyl)-carbamic acid 3-cyano-2-[3-(3-methoxy-phenyl)-butanoylamino]-4,5,6,7-tetrahydro-benzo[b]thiophen-6-yl ester], the IC50 in experiment [1] is ≥ 100000 nM; in experiment [2], ≤ 501 nM.

For `COc1cccc(C(C)CC(=O)Nc2sc3c(c2C#N)CCC(OC(=O)NCc2ccnn2C)C3)c1` (stereo not drawn) [Example 277, (2-Methyl-2H-pyrazol-3-ylmethyl)-carbamic acid 3-cyano-2-[3-(3-methoxy-phenyl)-butanoylamino]-4,5,6,7-tetrahydro-benzo[b] thiophen-6-yl ester], the IC50 in experiment [1] is ≥ 100000 nM; in experiment [2] it was ≤ 501 nM.

For the compound `CCNC(=O)OCC1CCc2c(sc(NC(=O)CC(C)c3cccnc3)c2C#N)C1` (stereo not drawn) [Example 278, Ethyl-carbamic acid 3-cyano-2-(3-pyridin-3-yl-butanoylamino)-4,5,6,7-tetrahydro-benzo[b] thiophen-6-ylmethyl ester], the figures for the IC50 in experiment [1] and in experiment [2] were ≥ 100000 nM and 501 to 2000 nM, respectively.

For `COc1cccc(C(C)CC(=O)Nc2sc3c(c2C#N)CCC(OC(=O)NCCn2ccnc2)C3)c1` (stereo not drawn) [Example 280, (2-Imidazol-1-yl-ethyl)-carbamic acid 3-cyano-2-[3-(3-methoxy-phenyl)-butanoylamino]-4,5,6,7-tetrahydro-benzo[b] thiophen-6-yl ester], the IC50 was ≥ 50100 nM in experiment [1] and 501 to 2000 nM in experiment [2].

In the case of `CC(CC(=O)Nc1sc2c(c1C#N)CCC(COC(=O)NCc1cnn(C)c1)C2)c1cccnc1` (stereo not drawn) [Example 281, (1-Methyl-1H-pyrazol-4-ylmethyl)-carbamic acid 3-cyano-2-(3-pyridin-3-yl-butanoyl-amino)-4,5,6,7-tetrahydro-benzo[b] thiophen-6-ylmethyl ester], the IC50 is ≥ 100000 nM in experiment [1] and 501 to 2000 nM in experiment [2].

Consider `Cc1cc(CNC(=O)OCC2CCc3c(sc(NC(=O)CC(C)c4cccnc4)c3C#N)C2)no1` (stereo not drawn) [Example 282, (5-Methyl-isoxazol-3-ylmethyl)-carbamic acid 3-cyano-2-(3-pyridin-3-yl-butanoylamino)-4,5,6,7-tetrahydro-benzo[b]thiophen-6-ylmethyl ester], for which the values for the IC50 in experiment [1] and in experiment [2] were ≥ 100000 nM and ≤ 501 nM, respectively.

Turning to `CC(CC(=O)Nc1sc2c(c1C#N)CCC(COC(=O)NC(C)c1ccccc1)C2)c1cccnc1` (stereo not drawn) [Example 283, (1-Phenyl-ethyl)-carbamic acid 3-cyano-2-(3-pyridin-3-yl-butanoylamino)-4,5,6,7-tetrahydro-benzo[b]thiophen-6-ylmethyl ester], the IC50 in experiment [1] is ≥ 100000 nM; in experiment [2] it was 501 to 2000 nM.

`CC(CC(=O)Nc1sc2c(c1C#N)CCC(COC(=O)NC(C)c1cccnc1)C2)c1cccnc1` (stereo not drawn) [Example 284, (1-Pyridin-3-yl-ethyl)-carbamic acid 3-cyano-2-(3-pyridin-3-yl-butanoyl-amino)-4,5,6,7-tetrahydro-benzo[b]thiophen-6-ylmethyl ester]: the IC50 in experiment [1] is ≥ 50100 nM; in experiment [2], 501 to 2000 nM.

Consider `CC(CC(=O)Nc1sc2c(c1C#N)CCC(COC(=O)NCc1cccn1C)C2)c1cccnc1` (stereo not drawn) [Example 285, (1-Methyl-1H-pyrrol-2-ylmethyl)-carbamic acid 3-cyano-2-(3-pyridin-3-yl-butanoylamino)-4,5,6,7-tetrahydro-benzo[b]thiophen-6-ylmethyl ester], for which the IC50 was ≥ 50100 nM in experiment [1] and 501 to 2000 nM in experiment [2].

Consider `CCn1nccc1CNC(=O)OC1CCc2c(sc(NC(=O)CC(C)c3cccc(OC)c3)c2C#N)C1` (stereo not drawn) [Example 286, (2-Ethyl-2H-pyrazol-3-ylmethyl)-carbamic acid 3-cyano-2-[3-(3-methoxy-phenyl)-butanoylamino]-4,5,6,7-tetrahydro-benzo[b] thiophen-6-yl ester], for which the IC50 in experiment [1] is ≥ 100000 nM; in experiment [2] it was ≤ 501 nM.

Consider `CC(CC(=O)Nc1sc2c(c1C#N)CCC(OC(=O)NCc1ccccn1)C2)c1ccccc1` (stereo not drawn) [Example 287, Pyridin-2-ylmethyl-carbamic acid 3-cyano-2-(3-phenyl-butanoylamino)-4,5,6,7-tetrahydro-benzo[b] thiophen-6-yl ester], for which the IC50 was ≥ 10000 nM in experiment [1] and 501 to 2000 nM in experiment [2].

Consider `CC(CC(=O)Nc1sc2c(c1C#N)CCC(OC(=O)NCc1cccnc1)C2)c1ccccc1` (stereo not drawn) [Example 288, Pyridin-3-ylmethyl-carbamicacid 3-cyano-2-(3-phenyl-butanoyl-amino)-4,5,6,7-tetrahydro-benzo[b]thiophen-6-yl ester], for which the values for the IC50 in experiment [1] and in experiment [2] were ≥ 10000 nM and ≤ 501 nM, respectively.

`CC(CC(=O)Nc1sc2c(c1C#N)CCC(OC(=O)NCc1ccncc1)C2)c1ccccc1` (stereo not drawn) [Example 289, Pyridin-4-ylmethyl-carbamic acid 3-cyano-2-(3-phenyl-butanoylamino)-4,5,6,7-tetrahydro-benzo[b] thiophen-6-yl ester]: the figures for the IC50 in experiment [1] and in experiment [2] were ≥ 10000 nM and ≤ 501 nM, respectively.

For `CC(CC(=O)Nc1sc2c(c1C#N)CCC(OC(=O)NCCc1cccnc1)C2)c1ccccc1` (stereo not drawn) [Example 290, (2-Pyridin-3-yl-ethyl)-carbamic acid 3-cyano-2-(3-phenyl-butanoyl-amino)-4,5,6,7-tetrahydro-benzo[b]thiophen-6-yl ester], the results for the IC50 in experiment [1] and in experiment [2] were ≥ 10000 nM and ≤ 501 nM, respectively.

For the compound `CC(CC(=O)Nc1sc2c(c1C#N)CCC(OC(=O)NC1CCOCC1)C2)c1ccccc1` (stereo not drawn) [Example 291, (Tetrahydro-pyran-4-yl)-carbamic acid 3-cyano-2-(3-phenyl-butanoyl-amino)-4,5,6,7-tetrahydro-benzo[b]thiophen-6-yl ester], the figures for the IC50 in experiment [1] and in experiment [2] were ≥ 10000 nM and ≤ 501 nM, respectively.

Consider `CC(CC(=O)Nc1sc2c(c1C#N)CCC(OC(=O)NCc1nccn1C)C2)c1ccccc1` (stereo not drawn) [Example 292, (1-Methyl-1H-imidazol-2-ylmethyl)-carbamic acid 3-cyano-2-(3-phenyl-butanoylamino)-4,5,6,7-tetrahydro-benzo[b] thiophen-6-yl ester], for which the IC50 in experiment [1] was ≥ 10000 nM; in experiment [2], 501 to 2000 nM.

As to `CC(CC(=O)Nc1sc2c(c1C#N)CCC(OC(=O)NCc1ccnn1C)C2)c1ccccc1` (stereo not drawn) [Example 293, (2-Methyl-2H-pyrazol-3-ylmethyl)-carbamic acid 3-cyano-2-(3-phenyl-butanoylamino)-4,5,6,7-tetrahydro-benzo[b] thiophen-6-yl ester], the IC50 is ≥ 50100 nM in experiment [1] and ≤ 501 nM in experiment [2].

In the case of `Cc1cc(CNC(=O)OC2CCc3c(sc(NC(=O)CC(C)c4ccccc4)c3C#N)C2)no1` (stereo not drawn) [Example 295, (5-Methyl-isoxazol-3-ylmethyl)-carbamic acid 3-cyano-2-(3-phenyl-butanoylamino)-4,5,6,7-tetrahydro-benzo[b] thiophen-6-yl ester], the values for the IC50 in experiment [1] and in experiment [2] were ≥ 50100 nM and ≤ 501 nM, respectively.

As for `CC(CC(=O)Nc1sc2c(c1C#N)CCC(OC(=O)NCC1CCCCO1)C2)c1ccccc1` (stereo not drawn) [Example 296, (Tetrahydropyran-2-ylmethyl)-carbamic acid 3-cyano-2-(3-phenyl-butanoylamino)-4,5,6,7-tetrahydro-benzo[b]thiophen-6-yl ester], the results for the IC50 in experiment [1] and in experiment [2] were ≥ 50100 nM and 501 to 2000 nM, respectively.

In the case of `CC(CC(=O)Nc1sc2c(c1C#N)CCC(OC(=O)NCC1CCCO1)C2)c1ccccc1` (stereo not drawn) [Example 297, (Tetrahydro-furan-2-ylmethyl)-carbamic acid 3-cyano-2-(3-phenyl-butanoyl-amino)-4,5,6,7-tetrahydro-benzo[b]thiophen-6-yl ester], the IC50 is ≥ 10000 nM in experiment [1] and 501 to 2000 nM in experiment [2].
